From patent publication US10604554B2, “Double-acylated GLP-1 derivatives” (Novo Nordisk A/S, priority 2012, dated 2020)
Read-outs that look alike come from different tables or passages of the source.

Biological target: T1, human GLP-1 receptor (Homo sapiens, UniProt P43220)
T1 construct: expressed in transfected cells; host or cells: BHK cells, clone FCW467-12A/KZ10-1 (parent line BHKTS13), further transfected with CRE luciferase
Assay: In vitro potency (AlphaScreen cAMP, membranes)
Assay type: biochemical
Description: The purpose of this example is to test the activity, or potency, of the GLP-1 derivatives in vitro.
Purified plasma membranes from a stable transfected cell line, BHK467-12A (tk-ts13), expressing the human GLP-1 receptor were stimulated with the GLP-1 analogue or derivative in question, and the potency of cAMP production was measured using the AlphaScreen™ cAMP Assay Kit from Perkin Elmer Life Sciences. The basic principle of the AlphaScreen Assay is a competition between endogenous cAMP and exogenously added biotin-cAMP. The capture of cAMP is achieved by using a specific antibody conjugated to acceptor beads.
A stable transfected cell line and a high expressing clone were selected for screening. The cells were grown at 5% CO2 in DMEM, 5% FCS, 1% Pen/Strep (Penicillin/Streptomycin) and 0.5 mg/ml of the selection marker G418.
Cells at approximately 80% confluence were washed 2× with PBS and harvested with Versene (aqueous solution of the tetrasodium salt of ethylenediaminetetraacetic acid), centrifuged 5 min at 1000 rpm and the supernatant removed. The additional steps were all performed on ice. The cell pellet was homogenised by the Ultrathurax for 20-30 s in 10 ml of Buffer 1 (20 mM Na-HEPES, 10 mM EDTA, pH=7.4), centrifuged 15 min at 20,000 rpm and the pellet resuspended in 10 ml of Buffer 2 (20 mM Na-HEPES, 0.1 mM EDTA, pH=7.4). The suspension was homogenised for 20-30 s and centrifuged 15 min at 20,000 rpm. Suspension in Buffer 2, homogenisation and centrifugation was repeated once and the membranes were resuspended in Buffer 2. The protein concentration was determined and the membranes stored at −80° C. until use.
The assay was performed in flat-bottom 96-well plates (Costar cat. no:3693). The final volume per well was 50 μl.
AlphaScreen cAMP Assay Kit from Perkin Elmer Life Sciences (cat. No: 6760625M); containing Anti-cAMP Acceptor beads (10 U/μl), Streptavidin Donor beads (10 U/μl) and Biotinylated-cAMP (133 U/μl).
AlphaScreen Buffer, pH=7.4: 50 mM TRIS-HCl (Sigma, cat.no: T3253); 5 mM HEPES (Sigma, cat.no: H3375); 10 mM MgCl2, 6H2O (Merck, cat.no: 5833); 150 mM NaCl (Sigma, cat.no: S9625); 0.01% Tween (Merck, cat.no: 822184). The following was added to the AlphaScreen Buffer prior to use (final concentrations indicated): BSA (Sigma, cat. no. A7906): 0.1%; IBMX (Sigma, cat. no. 15879): 0.5 mM; ATP (Sigma, cat. no. A7699): 1 mM; GTP (Sigma, cat. no. G8877): 1 uM.
cAMP standard (dilution factor in assay=5): cAMP Solution: 5 μL of a 5 mM cAMP-stock+495 μL AlphaScreen Buffer.
Membranes were prepared from hGLP-1/BHK 467-12A cells with a concentration of 6 μg/well corresponding to 0.6 mg/ml (the amount of membranes used pr. well may vary)
“No membranes”: Acceptor Beads (15 μg/ml final) in AlphaScreen buffer
“6 μg/well membranes”: membranes+Acceptor Beads (15 μg/ml final) in AlphaScreen buffer
An aliquot (10 μl) of “No membranes” was added to the cAMP standard (per well in duplicate wells) and the positive and negative controls
An aliquot (10 μl) of “6 μg/well membranes” was added to GLP-1 and analogues (per well in duplicate or triplicate wells)
Pos. Control: 10 μl “no membranes”+10 μl AlphaScreen Buffer
Neg. Control: 10 μl “no membranes”+10 μl cAMP Stock Solution (50 μM)
As the beads are sensitive to direct light, any handling was in the dark (as dark as possible), or in green light. All dilutions were made on ice.
1. Make the AlphaScreen Buffer.
2. Dissolve and dilute the GLP-1/Analogues/cAMP standard in AlphaScreen Buffer.
3. Make the Donor Beads Solution by mixing streptavidin donor beads (2 units/well) and biotinylated cAMP (1.2 units/well) and incubate 20-30 min in the dark at room temperature
4. Add the cAMP/GLP-1/Analogues to the plate: 10 μl per well.
5. Prepare membrane/Acceptor Beads solution and add this to the plates: 10 μl per well.
6. Add the Donor Beads: 30 μl per well.
7. Wrap the plate in aluminum foil and incubate on the shaker for 3 hours (very slowly) at RT.

[1] = cAMP formation in membranes from BHK467-12A cells expressing human GLP-1 receptor, read-out: In vitro potency (AlphaScreen) EC50

T1 sequence (P43220 24-463): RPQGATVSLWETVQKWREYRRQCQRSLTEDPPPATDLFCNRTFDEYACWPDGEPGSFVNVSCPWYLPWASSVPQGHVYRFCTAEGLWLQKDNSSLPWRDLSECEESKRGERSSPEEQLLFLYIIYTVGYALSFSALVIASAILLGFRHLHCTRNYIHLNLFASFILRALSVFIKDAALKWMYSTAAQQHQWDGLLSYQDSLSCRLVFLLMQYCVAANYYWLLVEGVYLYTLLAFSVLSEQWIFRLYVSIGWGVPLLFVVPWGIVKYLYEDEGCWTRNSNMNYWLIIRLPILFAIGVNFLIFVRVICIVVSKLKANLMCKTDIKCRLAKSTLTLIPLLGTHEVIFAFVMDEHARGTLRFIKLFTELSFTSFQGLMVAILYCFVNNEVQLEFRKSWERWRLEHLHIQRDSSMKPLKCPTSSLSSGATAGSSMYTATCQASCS

| EC50 [1] [nM] | SMILES | EC50 [nM] |
| --- | --- | --- |
|  | CC[C@H](C)[C@H](NC(=O)[C@H](Cc1ccccc1)NC(=O)[C@H](CCC(=O)O)NC(=O)[C@H](CCCCNC(=O)[C@@H](N)CCCCNC(=O)[C@@H](N)CCCCNC(=O)CC[C@H](NC(=O)CCCCCCCCCOc1ccc(C(=O)O)cc1)C(=O)O)NC(=O)[C@H](C)NC(=O)[C@H](C)NC(=O)[C@H](CCC(N)=O)NC(=O)CNC(=O)[C@H](CCC(=O)O)NC(=O)[C@H](CC(C)C)NC(=O)[C@H](Cc1ccc(O)cc1)NC(=O)[C@H](CO)NC(=O)[C@H](CO)NC(=O)[C@@H](NC(=O)[C@H](CC(=O)O)NC(=O)[C@H](CO)NC(=O)[C@@H](NC(=O)[C@H](Cc1ccccc1)NC(=O)[C@@H](NC(=O)CNC(=O)[C@H](CCC(=O)O)NC(=O)C(C)(C)NC(=O)[C@@H](N)Cc1c[nH]cn1)[C@@H](C)O)[C@@H](C)O)C(C)C)C(=O)N[C@@H](C)C(=O)N[C@@H](Cc1c[nH]c2ccccc12)C(=O)N[C@@H](CC(C)C)C(=O)N[C@H](C(=O)N[C@@H](CCCNC(=N)N)C(=O)NCC(=O)N[C@@H](CCCNC(=N)N)C(=O)N[C@@H](CCCCNC(=O)[C@@H](N)CCCCNC(=O)[C@@H](N)CCCCNC(=O)CC[C@H](NC(=O)CCCCCCCCCOc1ccc(C(=O)O)cc1)C(=O)O)C(=O)O)C(C)C [Example 1, N^ε26-[(2S)-2-amino-6-[[(2S)-2-amino-6-[[(4S)-4-carboxy-4-[10-(4-carboxyphenoxy)decanoylamino]butanoyl]amino]hexanoyl]amino]hexanoyl], N^ε37-[(2S)-2-amino-6-[[(2S)-2-amino-6-[[(4S)-4-carboxy-4-[10-(4-carboxyphenoxy)decanoylamino]butanoyl]amino]hexanoyl]amino]hexanoyl]-[Aib^8, Arg^34,Lys^37]-GLP-1-(7-37)-peptide] | 0.059 |
| 0.044 | CC[C@H](C)[C@H](NC(=O)[C@H](Cc1ccccc1)NC(=O)[C@H](CCC(=O)O)NC(=O)[C@H](CCCCNC(=O)[C@@H](N)CCCCNC(=O)[C@@H](N)CCCCNC(=O)CC[C@H](NC(=O)CCCCCCCCCCCCC(=O)O)C(=O)O)NC(=O)[C@H](C)NC(=O)[C@H](C)NC(=O)[C@H](CCC(N)=O)NC(=O)CNC(=O)[C@H](CCC(=O)O)NC(=O)[C@H](CC(C)C)NC(=O)[C@H](Cc1ccc(O)cc1)NC(=O)[C@H](CO)NC(=O)[C@H](CO)NC(=O)[C@@H](NC(=O)[C@H](CC(=O)O)NC(=O)[C@H](CO)NC(=O)[C@@H](NC(=O)[C@H](Cc1ccccc1)NC(=O)[C@@H](NC(=O)CNC(=O)[C@H](CCC(=O)O)NC(=O)C(C)(C)NC(=O)[C@@H](N)Cc1c[nH]cn1)[C@@H](C)O)[C@@H](C)O)C(C)C)C(=O)N[C@@H](C)C(=O)N[C@@H](Cc1c[nH]c2ccccc12)C(=O)N[C@@H](CC(C)C)C(=O)N[C@H](C(=O)N[C@@H](CCCNC(=N)N)C(=O)NCC(=O)N[C@@H](CCCNC(=N)N)C(=O)N[C@@H](CCCCNC(=O)[C@@H](N)CCCCNC(=O)[C@@H](N)CCCCNC(=O)CC[C@H](NC(=O)CCCCCCCCCCCCC(=O)O)C(=O)O)C(=O)O)C(C)C [Example 2, N^ε26-[(2S)-2-amino-6-[[(2S)-2-amino-6-[[(4S)-4-carboxy-4-(13-carboxytridecanoylamino)butanoyl]amino]hexanoyl]amino]hexanoyl], N^ε37-[(2S)-2-amino-6-[[(2S)-2-amino-6-[[(4S)-4-carboxy-4-(13-carboxytridecanoylamino)butanoyl]amino]hexanoyl]amino]hexanoyl]-[Aib^8,Arg^34,Lys^37]-GLP-1-(7-37)-peptide] |  |
| 0.492 | CC[C@H](C)[C@H](NC(=O)[C@H](Cc1ccccc1)NC(=O)[C@H](CCC(=O)O)NC(=O)[C@H](CCCCNC(=O)[C@@H](N)CCCCNC(=O)COCCOCCNC(=O)COCCOCCNC(=O)CC[C@H](NC(=O)CCCCCCCCCCCCCCC(=O)O)C(=O)O)NC(=O)[C@H](C)NC(=O)[C@H](C)NC(=O)[C@H](CCC(N)=O)NC(=O)CNC(=O)[C@H](CCC(=O)O)NC(=O)[C@H](CC(C)C)NC(=O)[C@H](Cc1ccc(O)cc1)NC(=O)[C@H](CO)NC(=O)[C@H](CO)NC(=O)[C@@H](NC(=O)[C@H](CC(=O)O)NC(=O)[C@H](CO)NC(=O)[C@@H](NC(=O)[C@H](Cc1ccccc1)NC(=O)[C@@H](NC(=O)CNC(=O)[C@H](CCC(=O)O)NC(=O)C(C)(C)NC(=O)[C@@H](N)Cc1c[nH]cn1)[C@@H](C)O)[C@@H](C)O)C(C)C)C(=O)N[C@@H](C)C(=O)N[C@@H](Cc1c[nH]c2ccccc12)C(=O)N[C@@H](CC(C)C)C(=O)N[C@H](C(=O)N[C@@H](CCCNC(=N)N)C(=O)NCC(=O)N[C@@H](CCCNC(=N)N)C(=O)N[C@@H](CCCCNC(=O)[C@@H](N)CCCCNC(=O)COCCOCCNC(=O)COCCOCCNC(=O)CC[C@H](NC(=O)CCCCCCCCCCCCCCC(=O)O)C(=O)O)C(=O)O)C(C)C [Example 10, N^ε26-[(2S)-2-amino-6-[[2-[2-[2-[[2-[2-[2-[[(4S)-4-carboxy-4-(15-carboxypentadecanoylamino)butanoyl]amino]ethoxy]ethoxy]acetyl]amino]ethoxy]ethoxy]acetyl]amino]hexanoyl], N^ε37-[(2S)-2-amino-6-[[2-[2-[2-[[2-[2-[2-[[(4S)-4-carboxy-4-(15-carboxypentadecanoylamino)butanoyl]amino]ethoxy]ethoxy]acetyl]amino]ethoxy]ethoxy]acetyl]amino]hexanoyl]-[Aib^8,Arg^34,Lys^37]-GLP-1-(7-37)-peptide] |  |
| 0.227 | CC[C@H](C)[C@H](NC(=O)[C@H](Cc1ccccc1)NC(=O)[C@H](CCC(=O)O)NC(=O)[C@H](CCCCNC(=O)[C@@H](N)CCCCNC(=O)[C@@H](N)CCCCNC(=O)CC[C@H](NC(=O)CC[C@H](NC(=O)CCCCCCCCCCCCCCC(=O)O)C(=O)O)C(=O)O)NC(=O)[C@H](C)NC(=O)[C@H](C)NC(=O)[C@H](CCC(N)=O)NC(=O)CNC(=O)[C@H](CCC(=O)O)NC(=O)[C@H](CC(C)C)NC(=O)[C@H](Cc1ccc(O)cc1)NC(=O)[C@H](CO)NC(=O)[C@H](CO)NC(=O)[C@@H](NC(=O)[C@H](CC(=O)O)NC(=O)[C@H](CO)NC(=O)[C@@H](NC(=O)[C@H](Cc1ccccc1)NC(=O)[C@@H](NC(=O)CNC(=O)[C@H](CCC(=O)O)NC(=O)C(C)(C)NC(=O)[C@@H](N)Cc1c[nH]cn1)[C@@H](C)O)[C@@H](C)O)C(C)C)C(=O)N[C@@H](C)C(=O)N[C@@H](Cc1c[nH]c2ccccc12)C(=O)N[C@@H](CC(C)C)C(=O)N[C@H](C(=O)N[C@@H](CCCNC(=N)N)C(=O)NCC(=O)N[C@@H](CCCNC(=N)N)C(=O)N[C@@H](CCCCNC(=O)[C@@H](N)CCCCNC(=O)[C@@H](N)CCCCNC(=O)CC[C@H](NC(=O)CC[C@H](NC(=O)CCCCCCCCCCCCCCC(=O)O)C(=O)O)C(=O)O)C(=O)O)C(C)C [Example 12, N^ε26-[(2S)-2-amino-6-[[(2S)-2-amino-6-[[(4S)-4-carboxy-4-[[(4S)-4-carboxy-4-(15-carboxypentadecanoylamino)butanoyl]amino]butanoyl]amino]hexanoyl]amino]hexanoyl], N^ε37-[(2S)-2-amino-6-[[(2S)-2-amino-6-[[(4S)-4-carboxy-4-[[(4S)-4-carboxy-4-(15-carboxypentadecanoylamino)butanoyl]amino]butanoyl]amino]hexanoyl]amino]hexanoyl]-[Aib^8,Arg^34, Lys^37]-GLP-1-(7-37)-peptide] |  |
